Measurements: patent US20110028566A1, “COMPOSITIONS AND PRODUCTS CONTAINING CYCLOALIPHATIC DIOL ANTIMICROBIAL AGENTS AND METHODS OF USING THE COMPOSITIONS AND PRODUCTS” (EASTMAN CHEMICAL COMPANY, priority 2009, published 2011)
Where “and” joins values, the source holds several entries; their conditions need not be identical. Equal entries are not always repeated.

Columns and labels:
Assay in all cases: MIC determination and synergy testing (Kull synergy index), microplate
Assay type in all cases: cell-based
[1] = system: Candida albicans ATCC 10231; set-up: QA/a: unit not given beside the values; conditions: for QA, MIC of CHDM alone / QA/a: concentration of CHDM alone (QA, MIC): C. albicans; for QA/a: concentration of CHDM alone (QA, MIC): Table 46
Method: The test cultures are listed in Table 7 along with the incubation temperatures used for growth and minimum inhibitory concentration (MIC) testing. […] C. albicans was cultured in Sabouraud dextrose broth (SDB) for approximately 44-52 hours for preparation of inoculum. A. niger was cultured on Sabouraud dextrose agar (SDA) for 3-4 days until there was confluent growth and visible spore formation. Spores were harvested from the SDA plates by flooding the surface of the plate with 5-10 mL of phosphate-buffered saline (PBS) and gently spreading the liquid across the surface of the plate with a sterile T-shaped plastic spreader (Copan Diagnostics) until there was a well-mixed suspension of spores. The resulting spore suspension was collected using a serological pipette and stored at 2-8° C. until use.
Inoculum concentration was determined by dilution plating of the cultures or spore suspension. A serial dilution in PBS was made to 10^−8 for the bacterial cultures or 10^−5 for the fungal cultures. Fifty or 100 μL of the final dilution was spread on two Trypticase-soy agar (TSA) plates for bacteria or two SDA plates for fungi. After 24 to 48 hours plates were counted and the concentrations used in each experiment were calculated.
The antimicrobial agents tested for synergy along with the respective diluents and working stock solution concentrations are shown below. For determination of MIC ranges, individual antimicrobial agent stock solutions were added to sterile medium to yield the highest level test concentrations, and then serially diluted in the medium to prepare the range of test concentrations. For synergy testing individual test concentrations were prepared in sterile medium, and then blended to form the desired combinations.
MICs were determined using a high-throughput microplate method. Individual antimicrobial agents were added to TSB (pH 7.3) for bacterial testing or SDB (pH 5.6) for fungal testing at the highest concentration to be tested. A serial dilution series was prepared at a dilution ratio of 1:1.3333 such that a one log range was covered in nine dilutions. Two-hundred microliters of the diluted antimicrobial agents were dispensed into four wells each of a sterile, 96-well, flat-bottom microplate (Nalge Nunc International). Four additional wells of the highest concentration were dispensed to serve as uninoculated high-level controls. Eight additional wells containing only broth medium were also prepared, four to serve as negative controls and four as positive controls. Three wells of each antimicrobial agent dilution were inoculated with one of the test strains in Table 7. The final well of each antimicrobial agent dilution was left uninoculated to serve as a control (and means of compensating) for any absorbance/turbidity due to the test compounds.
Microplates were inoculated using the cultures or spore suspensions prepared as described above. The S. aureus cultures were used undiluted, while the E. coli and P. aeruginosa cultures were used either undiluted or after a 1:2 dilution in sterile TSB. The C. albicans cultures were used either undiluted or following a 2-fold concentration by centrifugation. One of two means of inoculation was used to deliver a final concentration of approximately 10^5 colony-forming units (CFU)/mL of C. albicans, 10^5 spores/mL of A. niger, or 10^6 CFU/mL of bacteria. The primary method used a stainless steel pin replicator (Nalge Nunc International) mounted on a hand-operated bench-top press (Schmidt Technology Corporation) fitted with a custom-built microplate holder to dispense one microliter of each inoculum from a “master” plate containing 50-100 μL of culture into the wells of the test plate. The pin replicator was sterilized before and between inoculations by immersing in ethanol and flaming. The alternative method of inoculation was by directly pipetting 20 μL of a 1:20 dilution of each culture or spore suspension into the appropriate wells of the test plates.

[2] = system: Pseudomonas aeruginosa ATCC 27853; conditions: for QA, MIC of CHDM alone: plate 169E (CG series)
Outline: (§1)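 Broth microdilution in TSB (pH 7.3) for bacteria or SDB (pH 5.6) for C. albicans, 1:1.3333 serial dilutions covering one log in nine steps, agents alone or blended for synergy; triplicate wells inoculated to ~10^6 CFU/mL bacteria or ~10^5 CFU/mL yeast; uninoculated wells correct compound turbidity.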

[3] = system: Staphylococcus aureus ATCC 25923; conditions: for QA, MIC of CHDM alone / QA/a: concentration of CHDM alone (QA, MIC): S. aureus; for QA/a: concentration of CHDM alone (QA, MIC): Table 49
Outline: as §1

[4] = P. aeruginosa, plate 126E, day 2, PE and CHDM

OCC1CCC(CO)CC1 (stereo not shown) [1,4-CHDM, 1,4-cyclohexanedimethanol]
QA, MIC of CHDM alone ([1]; day 2 of incubation, plate 128B (MP series)): 3.00 weight percent
QA, MIC of CHDM alone ([1]; day 2 of incubation, plates 116B, 240B, 252B (PE series)): 5.85 weight percent and 6.67 weight percent and 3.56 weight percent
QA, MIC of CHDM alone ([1]; day 2 of incubation, plates 117B, 226B, 254B (CG series)): 5.63 weight percent and 5.00 weight percent and 3.56 weight percent
QA, MIC of CHDM alone ([1]; day 3 of incubation, plate 128B (MP series)): 4.00 weight percent
QA, MIC of CHDM alone ([1]; day 3 of incubation, plates 116B, 240B, 252B (PE series)): 4.75 weight percent and 5.85 weight percent and 6.67 weight percent
QA, MIC of CHDM alone ([1]; day 3 of incubation, plates 117B, 254B (CG series)): 4.75 weight percent and 6.67 weight percent
QA/a ([1]; CHDM alone (QA) or in combination with BA:DHA (a), plate 131B, day 3): 5.33
QA/a ([1]; CHDM alone (QA) or in combination with BA:DHA (a), plate 131B, day 4): 5.33
QA/a ([1]; CHDM alone (QA) or in combination with BA:DHA (a), plate 239B, day 2): 5.85
QA/a ([1]; CHDM alone (QA) or in combination with BA:DHA (a), plate 239B, day 3): 5.85
QA/a ([1]; CHDM alone (QA) or in combination with BA:DHA (a), plate 258B, day 2): 5.00
QA/a ([1]; CHDM alone (QA) or in combination with BA:DHA (a), plate 258B, day 3): 6.67
QA/a ([1]; CHDM alone (QA) or in combination with DMDM hydantoin (a), plate 241B, day 2): 5.85
QA/a ([1]; CHDM alone (QA) or in combination with DMDM hydantoin (a), plate 241B, day 3): 5.85
QA/a ([1]; CHDM alone (QA) or in combination with DMDM hydantoin (a), plate 244B, day 2): 6.00
QA/a ([1]; CHDM alone (QA) or in combination with DMDM hydantoin (a), plate 244B, day 3): 8.00
QA/a ([1]; CHDM alone (QA) or in combination with DMDM hydantoin (a), plate 263B, day 2): 8.00
QA/a ([1]; CHDM alone (QA) or in combination with DMDM hydantoin (a), plate 263B, day 3): 8.00
QA/a ([1]; CHDM alone (QA) or in combination with DMDM hydantoin (a), plate 264B, day 2): 6.67
QA/a ([1]; CHDM alone (QA) or in combination with DMDM hydantoin (a), plate 264B, day 3): 6.67
QA/a ([1]; CHDM: MIC alone (QA) or conc. in combination with CP (a), plate 130B, day 2): 3.00
QA/a ([1]; CHDM: MIC alone (QA) or conc. in combination with CP (a), plate 130B, day 3): 4.00
QA/a ([1]; CHDM: MIC alone (QA) or conc. in combination with CP (a), plate 227B, day 2): 5.63
QA/a ([1]; CHDM: MIC alone (QA) or conc. in combination with CP (a), plate 227B, day 3): 5.63
QA/a ([1]; CHDM: MIC alone (QA) or conc. in combination with CP (a), plate 256B, day 2): 6.67
QA/a ([1]; CHDM: MIC alone (QA) or conc. in combination with CP (a), plate 256B, day 3): 6.67
QA/a ([1]; CHDM: MIC alone (QA) or conc. in combination with MIT (a), plate 162B, day 3): 5.33
QA/a ([1]; CHDM: MIC alone (QA) or conc. in combination with MIT (a), plate 200B, day 2): 6.23
QA/a ([1]; CHDM: MIC alone (QA) or conc. in combination with MIT (a), plate 200B, day 3): 6.23
QA/a: concentration of CHDM alone (QA, MIC) ([1]; Day 2): 4.00 weight percent and 3.38 weight percent
QA/a: concentration of CHDM alone (QA, MIC) ([1]; Day 3): 4.50 weight percent
QA/a ([2]; CHDM alone (QA) or in combination with BA:DHA (a), plate 149E, day 1): 1.31
QA/a ([2]; CHDM alone (QA) or in combination with BA:DHA (a), plate 149E, day 2): 1.75
QA/a ([2]; CHDM alone (QA) or in combination with DMDM hydantoin (a), plate 150E, day 1): 1.31
QA/a ([2]; CHDM: MIC alone (QA) or conc. in combination with CP (a), plate 148E, day 1): 1.31
QA/a ([2]; CHDM: MIC alone (QA) or conc. in combination with MIT (a), plate 147E, day 1): 1.31
QA/a ([2]; CHDM: MIC alone (QA) or conc. in combination with MIT (a), plate 147E, day 2): 2.33
QA/a ([2]; CHDM: MIC alone (QA) or conc. in combination with MIT (a), plate 210E, day 1): 1.75
QA/a ([2]; CHDM: MIC alone (QA) or conc. in combination with MIT (a), plate 210E, day 2): 1.75
QA/a ([2]; CHDM: MIC alone (QA) or conc. in combination with MIT (a), plate 249E, day 1): 1.80
QA/a ([2]; CHDM: MIC alone (QA) or conc. in combination with MIT (a), plate 249E, day 2): 1.80
QA/a ([2]; CHDM: MIC alone (QA) or conc. in combination with MP (a), plate 146E, day 1): 1.31
QA, MIC of CHDM alone ([2]; P. aeruginosa, day 1 of incubation): 1.31 weight percent
QA, MIC of CHDM alone ([2]; P. aeruginosa, day 2 of incubation): 1.75 weight percent
QA, MIC of CHDM alone ([2]; P. aeruginosa, day 3 of incubation): 1.75 weight percent
QA/a: concentration of CHDM (MIC alone, or in the combination at an inhibitory concentration) [2, 4]: 1.75 weight percent
SI (synergy index) [2, 4]: 1.00
QA/a: concentration of CHDM alone (QA, MIC) ([2]; Table 43, P. aeruginosa, Day 1): 1.31 weight percent and 1.35 weight percent
QA/a: concentration of CHDM alone (QA, MIC) ([2]; Table 43, P. aeruginosa, Day 2): 1.75 weight percent and 1.80 weight percent and 1.35 weight percent
QA/a: concentration of CHDM alone (QA, MIC) ([2]; Table 45, P. aeruginosa, Day 1): 1.31 weight percent and 1.35 weight percent and 1.80 weight percent
QA/a: concentration of CHDM alone (QA, MIC) ([2]; Table 45, P. aeruginosa, Day 2): 2.33 weight percent and 1.75 weight percent and 1.80 weight percent
QA/a: concentration of CHDM alone (QA, MIC) ([2]; Table 48, P. aeruginosa, Day 1): 1.75 weight percent and 1.31 weight percent
QA/a: concentration of CHDM alone (QA, MIC) ([2]; Table 48, P. aeruginosa, Day 2): 2.33 weight percent and 1.75 weight percent
QA/a ([3]; CHDM alone (QA) or in combination with BA:DHA (a), plate 139D, day 1): 3.11
QA/a ([3]; CHDM alone (QA) or in combination with BA:DHA (a), plate 139D, day 2): 4.15
QA/a ([3]; CHDM alone (QA) or in combination with BA:DHA (a), plate 220D, day 1): 3.30
QA/a ([3]; CHDM alone (QA) or in combination with BA:DHA (a), plate 220D, day 2): 3.30
QA/a ([3]; CHDM alone (QA) or in combination with BA:DHA (a), plate 235D, day 1): 5.00
QA/a ([3]; CHDM alone (QA) or in combination with BA:DHA (a), plate 235D, day 2): 5.00
QA/a ([3]; CHDM: MIC alone (QA) or conc. in combination with CP (a), plate 138D, day 1): 3.11
QA/a ([3]; CHDM: MIC alone (QA) or conc. in combination with CP (a), plate 138D, day 2): 4.15
QA/a ([3]; CHDM: MIC alone (QA) or conc. in combination with MIT (a), plate 137D, day 2): 4.15
QA/a ([3]; CHDM: MIC alone (QA) or conc. in combination with MP (a), plate 166D, day 1): 3.30
QA/a ([3]; CHDM: MIC alone (QA) or conc. in combination with MP (a), plate 166D, day 2): 3.30
QA, MIC of CHDM alone ([3]; day 1 of incubation, plate 125D (CG series)): 3.11 weight percent
QA, MIC of CHDM alone ([3]; day 1 of incubation, plates 124D, 219D, 234D (PE series)): 3.30 weight percent and 3.75 weight percent and 3.11 weight percent
QA, MIC of CHDM alone ([3]; day 2 of incubation, plate 125D (CG series)): 3.11 weight percent
QA, MIC of CHDM alone ([3]; day 2 of incubation, plates 124D, 219D (PE series)): 3.11 weight percent and 3.30 weight percent
QA/a: concentration of CHDM alone (QA, MIC) ([3]; Day 1): 3.11 weight percent
QA/a: concentration of CHDM alone (QA, MIC) ([3]; Day 2): 4.15 weight percent
